Measured values reported in patent US8158587B2, “Compound having histone deacetylase-inhibiting activity, and pharmaceutical composition comprising the compound as an active ingredient” (Kyushu Institute of Technology, priority 2006, dated 2012).

Columns and labels:
[1] = molecular target: T1, human HDAC4 (Homo sapiens, UniProt P56524); test: HDAC-inhibiting activity, coumarin-labeled acetylated histone peptide assay; type: biochemical; conditions: human HDAC4 from transfected 293T cells; 37° C., 30 minutes; read-out: HDAC-inhibiting activity IC50 HDAC4
T1 construct: made in house; host or cells: 293T cells (transient transfection, anti-FLAG immunoprecipitation, FLAG peptide elution)
T1 sequence (P56524 whole entry): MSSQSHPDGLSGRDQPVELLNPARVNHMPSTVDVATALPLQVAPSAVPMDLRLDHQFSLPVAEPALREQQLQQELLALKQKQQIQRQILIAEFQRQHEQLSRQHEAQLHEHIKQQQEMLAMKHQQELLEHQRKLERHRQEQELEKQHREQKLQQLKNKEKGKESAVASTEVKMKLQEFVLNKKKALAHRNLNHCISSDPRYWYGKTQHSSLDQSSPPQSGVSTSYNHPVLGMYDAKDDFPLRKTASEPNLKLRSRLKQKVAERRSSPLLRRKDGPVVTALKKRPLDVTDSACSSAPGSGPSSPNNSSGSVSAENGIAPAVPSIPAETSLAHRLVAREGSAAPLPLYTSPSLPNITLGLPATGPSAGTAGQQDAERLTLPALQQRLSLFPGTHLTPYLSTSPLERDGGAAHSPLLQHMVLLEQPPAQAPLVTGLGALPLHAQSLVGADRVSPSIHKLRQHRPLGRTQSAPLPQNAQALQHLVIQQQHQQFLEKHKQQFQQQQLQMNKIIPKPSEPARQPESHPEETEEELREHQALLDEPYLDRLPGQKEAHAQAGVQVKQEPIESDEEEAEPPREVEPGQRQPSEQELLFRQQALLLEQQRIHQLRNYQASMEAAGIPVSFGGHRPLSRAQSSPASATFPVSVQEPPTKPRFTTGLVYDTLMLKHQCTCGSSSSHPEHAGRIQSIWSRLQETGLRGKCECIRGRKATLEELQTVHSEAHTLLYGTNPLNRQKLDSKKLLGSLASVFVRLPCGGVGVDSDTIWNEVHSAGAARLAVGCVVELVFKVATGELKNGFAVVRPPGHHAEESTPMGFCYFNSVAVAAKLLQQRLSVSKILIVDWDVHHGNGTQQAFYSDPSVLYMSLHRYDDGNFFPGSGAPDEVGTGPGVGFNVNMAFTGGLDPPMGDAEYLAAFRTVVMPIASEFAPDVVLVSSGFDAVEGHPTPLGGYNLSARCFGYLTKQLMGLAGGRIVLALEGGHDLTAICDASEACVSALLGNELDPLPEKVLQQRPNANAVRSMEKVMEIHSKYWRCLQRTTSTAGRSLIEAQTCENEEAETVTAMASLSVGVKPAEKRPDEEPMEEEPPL
T1 sequence (O15379 whole entry, further chain): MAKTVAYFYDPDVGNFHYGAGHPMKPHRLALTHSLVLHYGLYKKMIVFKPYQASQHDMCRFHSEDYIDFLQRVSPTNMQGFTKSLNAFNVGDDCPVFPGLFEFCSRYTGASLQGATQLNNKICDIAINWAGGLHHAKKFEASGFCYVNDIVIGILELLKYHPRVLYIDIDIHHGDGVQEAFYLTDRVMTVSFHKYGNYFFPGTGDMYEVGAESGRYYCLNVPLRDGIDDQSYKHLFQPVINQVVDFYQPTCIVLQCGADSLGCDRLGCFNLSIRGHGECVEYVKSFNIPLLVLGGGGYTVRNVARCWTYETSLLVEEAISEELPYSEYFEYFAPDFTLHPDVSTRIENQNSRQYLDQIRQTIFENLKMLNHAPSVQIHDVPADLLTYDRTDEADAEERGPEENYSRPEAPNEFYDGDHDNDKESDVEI
Experimental: In carrying out HDAC-inhibiting activity measurements, HDAC solutions were prepared in the following manner. […] The human HDAC1 expression vector used was pcDNA3-HD1 (Yang, W. M., Yao, Y. L., Sun, […]. & Seto, E. (1997) J. Biol. Chem. 272, 28001-28007), the human HDAC4 expression vector used was pcDNA3-HD4 ([…]., Nagase, […]. Biol. Chem. 274, 11713-11720), and the murine HDAC6 expression vector used was pcDNA3-mHDA2/HDAC6 ([…]. Biol. Chem. 274, 2440-2445). After 24 hours of incubation, cells were recovered, washed with PBS, suspended in lysis buffer (50 mM Tris-HCl (pH 7.5), 120 mM NaCl, 5 mM EDTA, 0.5% Nonidet P-40), and sonicated. The supernatant was collected by centrifugation and then deprived of nonspecific proteins using Protein A/G plus agarose beads (Santa Cruz Biotechnologies, Inc.). Thereafter, anti-FLAG M2 antibody (Sigma-Aldrich Inc.) was added, and the reaction was allowed to proceed at 4° C. for 2 hours. To this were added agarose beads, the reaction was allowed to proceed at 4° C. for 3 hours, and the agarose beads were washed three times with lysis buffer and then once with HD buffer (20 mM Tris-HCl (pH 8.0), 150 mM NaCl, 10% glycerol). […] HDAC-inhibiting activity evaluation in each in vitro system was made as follows. Each test compound was dissolved in DMSO, a stock solution with a concentration of 10 mM was thus prepared and this was used as an inhibitor stock solution. The assay was carried out by incubating the HDAC solution and a coumarin-labeled acetylated histone peptide solution in the presence of the test compound at 37° C. for 30 minutes (reaction volume 20 μl). To the reaction mixture was added 30 μl of trypsin, and the aminomethylcoumarin released by the enzymatic reaction was assayed using a fluorescent plate reader. In a negative control assay, no inhibitor was added to the reaction system and the same procedure was carried out.

[2] = system: human wild type p21 promoter; test: p21 promoter assay (luciferase) in MFLL-9 cells; type: cell-based; conditions: 20 hours, concentration giving 1000% luminescence relative to negative control (100%)
Experimental: As an HDAC-inhibiting activity in an […] system, the following measurement was carried out using the p21 promoter inducing activity as an index. MFLL-9 cells used in the experiment are cells stably retaining a fusion gene (Dr. B. Vogelstaein) from the human wild type p21 promoter and luciferase gene. They were cultured using phenol red-free DMEM supplemented with 10% FBS in a steam-saturated incubator at 37° C. in the presence of 5% carbon dioxide. These MFLL-9 cells were sowed onto a 96-well microplate at a cell density of 2×10^4 cells/well and, after 24 hours of cultivation in 99 μl, per well, of the medium mentioned above, each test compound solution was added, followed by 20 hours of incubation. […] In a negative control, the same procedure was carried out without adding any inhibitor to the reaction system.
Using Luciferase Assay Reagent (Promega), the intensity of the luminescence due to the product of the enzymatic reaction involving luciferase expressed within cells was measured.

[3] = system: lung cancer cell line NCI-H522; test: Human cancer cell line panel, proliferation (sulforhodamine B); type: cell-based; conditions: NCI-H522, 2 days of cultivation; read-out: 50% inhibitory concentration, proliferation
Text: (§1) The characteristics of the human cancer cell proliferation-inhibiting activity of the compounds of the present invention were examined by the “method of evaluating the mechanisms of action of compounds using a panel of human cancer cell lines” as proposed by Yamori et al. (cf. Gan to Kagaku Ryoho (Cancer and Chemotherapy) 29 Suppl. II (2002) and Cancer Chemother. Pharmacol. 52 Suppl. I, S74-79 (2003)).
(§2) This system includes […] (7 lung cancer, 6 stomach cancer, 5 colon cancer, 5 ovarian cancer, 6 brain tumor, […], 2 kidney cancer and 2 prostate cancer cell lines as well as one melanoma line) and the method comprises measuring the in vitro drug susceptibilities of those cancer cell lines and expressing the differences in drug susceptibility among the respective cancer cell lines as a fingerprint. […] By utilizing this property, it is possible to estimate the mechanisms of action of a compound. The above method is also characterized in that an anticancer substance showing new and unique mechanisms of action different from those of the existing anticancer agents can be selected.
(§3) Cancer cells of each cell line are sowed onto a 96-well plate, a sample solution is added on the next day and, after 2 days of cultivation, the cell proliferation is measured by colorimetry using sulforhodamine B. The deviations in effective concentration for the respective cancer cell lines from the mean effective drug concentration for the 39 cancer cell lines subjected to measurement are calculated and shown in the form a fingerprint.

[4] = system: melanoma cell line LOX-IMVI; test: as above; type: cell-based; conditions: 2 days of cultivation, read-out: 50% inhibitory concentration, proliferation
Text: as §1, §2, §3

[5] = molecular target: T2, human HDAC1 (Homo sapiens, UniProt Q13547); test: HDAC-inhibiting activity, coumarin-labeled acetylated histone peptide assay; type: biochemical; conditions: human HDAC1 from transfected 293T cells; 37° C., 30 minutes
T2 construct: made in house; host or cells: 293T cells (transient transfection, anti-FLAG immunoprecipitation, FLAG peptide elution)
T2 sequence (Q13547 whole entry): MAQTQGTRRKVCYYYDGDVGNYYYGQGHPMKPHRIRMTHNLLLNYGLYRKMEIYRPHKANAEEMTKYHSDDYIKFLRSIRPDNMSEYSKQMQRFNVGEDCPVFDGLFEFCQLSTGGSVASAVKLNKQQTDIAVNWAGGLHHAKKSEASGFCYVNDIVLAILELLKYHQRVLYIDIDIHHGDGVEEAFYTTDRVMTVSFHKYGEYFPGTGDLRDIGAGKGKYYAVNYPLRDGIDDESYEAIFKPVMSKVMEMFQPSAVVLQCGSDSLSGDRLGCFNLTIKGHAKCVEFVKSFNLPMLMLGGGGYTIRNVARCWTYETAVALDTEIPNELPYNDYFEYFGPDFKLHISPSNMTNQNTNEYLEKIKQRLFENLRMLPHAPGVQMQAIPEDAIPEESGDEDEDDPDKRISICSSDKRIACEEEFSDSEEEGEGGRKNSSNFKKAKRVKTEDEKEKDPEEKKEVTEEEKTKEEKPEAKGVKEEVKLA
Experimental: (§4) In carrying out HDAC-inhibiting activity measurements, HDAC solutions were prepared in the following manner. In each 100-mm dish, there were sowed 1×10^7 293T cells and, after 24 hours, they were transfected with a vector (5 μg) expressing human HDAC1 or HDAC4 or murine HDAC6 using the LipofectAmine 2000 reagent (Invitrogen). The human HDAC1 expression vector used was pcDNA3-HD1 (Yang, W. M., Yao, Y. L., Sun, J. M., Davie, J. R. & Seto, E. (1997) J. Biol. Chem. 272, 28001-28007), the human HDAC4 expression vector used was pcDNA3-HD4 (Fischle, W., Emiliani, S., Hendzel, M. J., Nagase, T., Nomura, N., Voelter, W. & Verdin, E. (1999) J. Biol. Chem. 274, 11713-11720), and the murine HDAC6 expression vector used was pcDNA3-mHDA2/HDAC6 (Verdel, A. & Khochbin, S. (1999) J. Biol. Chem. 274, 2440-2445).
(§5) After 24 hours of incubation, cells were recovered, washed with PBS, suspended in lysis buffer (50 mM Tris-HCl (pH 7.5), 120 mM NaCl, 5 mM EDTA, 0.5% Nonidet P-40), and sonicated. The supernatant was collected by centrifugation and then deprived of nonspecific proteins using Protein A/G plus agarose beads (Santa Cruz Biotechnologies, Inc.). Thereafter, anti-FLAG M2 antibody (Sigma-Aldrich Inc.) was added, and the reaction was allowed to proceed at 4° C. for 2 hours.
(§6) To this were added agarose beads, the reaction was allowed to proceed at 4° C. for 3 hours, and the agarose beads were washed three times with lysis buffer and then once with HD buffer (20 mM Tris-HCl (pH 8.0), 150 mM NaCl, 10% glycerol). The protein bound to the agarose beads was recovered by 1 hour of incubation with FLAG peptide (40 μg) (Sigma-Aldrich Inc.) in HD buffer (200 μl) at 4° C., and the liquid recovered was used, as a reactant solution, in the HDAC-inhibiting activity measurement described below.
(§7) HDAC-inhibiting activity evaluation in each in vitro system was made as follows. Each test compound was dissolved in DMSO, a stock solution with a concentration of 10 mM was thus prepared and this was used as an inhibitor stock solution. The assay was carried out by incubating the HDAC solution and a coumarin-labeled acetylated histone peptide solution in the presence of the test compound at 37° C. for 30 minutes (reaction volume 20 μl). To the reaction mixture was added 30 μl of trypsin, and the aminomethylcoumarin released by the enzymatic reaction was assayed using a fluorescent plate reader. In a negative control assay, no inhibitor was added to the reaction system and the same procedure was carried out.

[6] = molecular target: T3, murine HDAC6 (Mus musculus, UniProt Q9Z2V5); test: as above; type: biochemical; conditions: murine HDAC6 from transfected 293T cells; 37° C., 30 minutes
T3 construct: made in house; host or cells: 293T cells (transient transfection, anti-FLAG immunoprecipitation, FLAG peptide elution)
T3 sequence (Q9Z2V5 1-1149): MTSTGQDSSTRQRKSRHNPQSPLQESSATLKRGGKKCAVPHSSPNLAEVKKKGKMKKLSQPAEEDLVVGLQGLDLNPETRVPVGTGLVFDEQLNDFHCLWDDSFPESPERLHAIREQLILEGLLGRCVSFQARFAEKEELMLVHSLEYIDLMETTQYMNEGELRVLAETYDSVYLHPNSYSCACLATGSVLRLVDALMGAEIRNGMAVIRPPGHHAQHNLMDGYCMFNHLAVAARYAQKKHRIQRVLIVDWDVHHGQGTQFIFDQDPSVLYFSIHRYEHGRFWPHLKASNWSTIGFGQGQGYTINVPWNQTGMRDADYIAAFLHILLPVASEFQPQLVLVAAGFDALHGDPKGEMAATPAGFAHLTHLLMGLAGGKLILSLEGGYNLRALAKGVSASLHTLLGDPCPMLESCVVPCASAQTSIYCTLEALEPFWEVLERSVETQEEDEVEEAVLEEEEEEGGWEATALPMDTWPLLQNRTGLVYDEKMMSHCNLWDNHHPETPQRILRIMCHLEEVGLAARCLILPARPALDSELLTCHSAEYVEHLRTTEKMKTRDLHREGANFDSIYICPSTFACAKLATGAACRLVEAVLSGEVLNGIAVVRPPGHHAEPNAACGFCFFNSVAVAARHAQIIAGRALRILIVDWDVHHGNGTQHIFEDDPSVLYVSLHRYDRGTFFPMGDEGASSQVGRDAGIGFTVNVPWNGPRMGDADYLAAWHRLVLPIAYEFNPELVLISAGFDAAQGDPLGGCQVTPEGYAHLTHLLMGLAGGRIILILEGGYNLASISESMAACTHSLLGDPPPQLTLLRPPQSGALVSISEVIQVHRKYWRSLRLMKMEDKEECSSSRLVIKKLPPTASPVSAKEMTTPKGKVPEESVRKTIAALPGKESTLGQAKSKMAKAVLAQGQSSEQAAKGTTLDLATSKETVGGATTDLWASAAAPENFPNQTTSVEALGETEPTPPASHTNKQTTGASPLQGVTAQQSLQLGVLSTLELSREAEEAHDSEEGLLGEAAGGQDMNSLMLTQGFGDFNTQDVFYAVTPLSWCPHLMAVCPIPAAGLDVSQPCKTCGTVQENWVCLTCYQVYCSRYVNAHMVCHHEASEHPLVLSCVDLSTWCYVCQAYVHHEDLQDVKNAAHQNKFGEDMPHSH
Experimental: as §4, §5, §6, §7

IC50 [1] [nM]	IC50 [3] [nM]	IC50 [4] [nM]	IC50 [5] [nM]	IC50 [6] [nM]	Compound	p21 promoter activity EC1000 [2] [µM]
330			400	3700	CC1(C)NC(=O)[C@H](CCCCCSCc2cccnc2)NC(=O)[C@H]2CCCN2C(=O)[C@H](Cc2ccccc2)NC1=O [Ky-68, cyclo(-L-Am7(3-pyridylmethyl)-Aib-L-Phe-D-Pro-)]	0.20
6.5			11	120	CC1(C)NC(=O)[C@H](CCCCCSCc2ccccc2)NC(=O)[C@H]2CCCN2C(=O)[C@H](Cc2ccccc2)NC1=O [Ky-69, cyclo(-L-Am7(benzyl)-Aib-L-Phe-D-Pro-)]	0.041
77			130	1200	COCC(=O)CSCCCCC[C@@H]1NC(=O)[C@H]2CCCN2C(=O)[C@H](Cc2ccccc2)NC(=O)C(C)(C)NC1=O [Ky-85, cyclo(-L-Am7(methoxyacetonyl)-Aib-L-Phe-D-Pro-)]	0.48

Further lines, the compound ahead of its results:

Compound	IC50 [1] [nM]	IC50 [3] [nM]	IC50 [4] [nM]	IC50 [5] [nM]	IC50 [6] [nM]	p21 promoter activity EC1000 [2] [µM]
COCC(=O)CCCCC[C@@H]1NC(=O)[C@H]2CCCN2C(=O)[C@H](Cc2ccccc2)NC(=O)C(C)(C)NC1=O [Ky-9, cyclo(-L-Ae9(Mmk)-Aib-L-Phe-D-Pro-)]	28	≤ 100	≤ 100			0.043
CC1(C)NC(=O)[C@H](CCCCC[S+]([O-])CC(=O)C(F)(F)F)NC(=O)[C@H]2CCCN2C(=O)[C@H](Cc2ccccc2)NC1=O (stereo partly drawn) [Ky-71, cyclo(-L-Am7(1,1,1-trifluoroacetonyl, sulfoxide)-Aib-L-Phe-D-Pro-)]	> 100000			> 100000	> 100000	3.4
CC1(C)NC(=O)[C@H](CCCCCCSCC(=O)C(F)(F)F)NC(=O)[C@H]2CCCN2C(=O)[C@H](Cc2ccccc2)NC1=O [Ky-73, cyclo(-L-Am8(1,1,1-trifluoroacetonyl)-Aib-L-Phe-D-Pro-)]	460			1100	26400	3.7
CC(=O)COCCCCC[C@@H]1NC(=O)[C@H]2CCCN2C(=O)[C@H](Cc2ccccc2)NC(=O)C(C)(C)NC1=O [Ky-74, cyclo(-L-Ah7(acetonyl)-Aib-L-Phe-D-Pro-)]	> 100000			> 100000	> 100000	>250
